Test results from patent publication US20070179060A1, “6-(Poly-substituted aryl)-4-aminopicolinates and their use as herbicides” (priority 2006, published 2007).

What was measured:
[1] = tested on: lambsquarter (Chenopodium album); assay: Postemergence herbicidal activity; type: in vivo; details: Chenopodium album, post-emergence, 336 h, post-emergent, 140 g ai/ha, after 14 days; read-out: % Control CHEAL
How it was run: (§1)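 Plants grown 7-21 days in greenhouse (about 15 h photoperiod, 23-29° C day, 22-28° C night) to first or second true leaf stage. Compounds in acetone/water/isopropanol/DMSO carrier with crop oil concentrate and Triton X-155 sprayed overhead at 187 L/ha; controls received solvent blank. Plants sub-irrigated afterwards; dose responses analysed by probit analysis.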

[2] = tested on: redroot pigweed (Amaranthus retroflexus); assay: Postemergence herbicidal activity; type: in vivo; details: Amaranthus retroflexus, post-emergence, 336 h, post-emergent, 140 g ai/ha, after 14 days; read-out: % Control AMARE
How it was run: as §1

[3] = tested on: velvetleaf (Abutilon theophrasti); assay: Postemergence herbicidal activity; type: in vivo; details: Abutilon theophrasti, post-emergence, 336 h, post-emergent, 140 g ai/ha, after 14 days; read-out: % Control ABUTH
How it was run: as §1

[4] = tested on: Cyperus difformis; assay: Herbicidal activity in transplanted paddy rice; type: in vivo; details: paddy water application, after 3 weeks; for pest or weed control at 35 g/ha: 35 g ai/ha
Experimental: (§2) Weed seeds or nutlets of the desired test plant species were planted in puddled soil (mud) prepared by mixing a non-sterilized mineral soil (28 percent silt, 18 percent clay, and 54 percent sand, with a pH of about 7.3 to 7.8 and an organic matter content of about 1.0 percent) and water at a ratio of 100 kg of soil to 19 L of water. The prepared mud was dispensed in 250 mL aliquots into 480 mL non-perforated plastic pots with a surface area of 91.6 square centimeters leaving a headspace of 3 centimeters in each pot. […] Seedlings at the second or third leaf stage of growth were transplanted into 650 mL of mud contained in 960 mL non-perforated plastic pots with a surface area of 91.6 square centimeters 4 days prior to herbicide application. The paddy was created by filling the 3 centimeter headspace of the pots with water. When required to ensure good germination and healthy plants, a fungicide treatment and/or other chemical or physical treatment was applied. The plants were grown for 4-14 days in a greenhouse with an approximate 14 hour photoperiod which was maintained at about 29° C. during the day and 26° C. during the night. Nutrients were added as Osmocote (17:6:10, N:P:K+minor nutrients) at 2 g per pot. Water was added on a regular basis to maintain the paddy flood, and supplemental lighting was provided with overhead metal halide 1000-Watt lamps as necessary. The plants were employed for testing when they reached the second or third true leaf stage. A weighed amount, determined by the highest rate to be tested, of each test compound was placed in a 120 mL glass vial and was dissolved in 20 mL of acetone to obtain concentrated stock solutions. […] Application rates of ½×, ¼×, ⅛× and 1/16× of the high rate were obtained by injecting an appropriate amount of the stock solution into the aqueous layer of the paddy. Control plants were treated in the same manner with the solvent blank. The treated plants and control plants were placed in a greenhouse as described above and water was added as needed to maintain a paddy flood.

[5] = tested on: Echinochloa crus-galli; assay: Herbicidal activity in transplanted paddy rice; type: in vivo; details: paddy water application, after 3 weeks; for pest or weed control at 35 g/ha: 35 g ai/ha
Experimental: as §2

[6] = tested on: Monochoria vaginalis; assay: Herbicidal activity in transplanted paddy rice; type: in vivo; details: paddy water application, after 3 weeks; for pest or weed control at 35 g/ha: 35 g ai/ha
Experimental: as §2

[7] = tested on: Scirpus juncoides; assay: Herbicidal activity in transplanted paddy rice; type: in vivo; details: paddy water application, after 3 weeks; for pest or weed control at 35 g/ha: 35 g ai/ha
Experimental: as §2

[8] = tested on: rice (Orysa sativa var. Japonica); assay: Herbicidal activity in transplanted paddy rice; type: in vivo; details: transplant rice (crop), paddy water application, after 3 weeks; for pest or weed control at 35 g/ha: 35 g ai/ha
Experimental: as §2

[9] = tested on: Galium aparine; assay: Postemergence herbicidal activity in cereal crops; type: in vivo; details: post-emergent, 17.5 g ai/ha, after 20-22 days; for pest or weed control at 17.5 g/ha: Galium aparine, post-emergence, 480 h, read-out: % Control GALAP
Experimental: (§3) When required to ensure good germination and healthy plants, a fungicide treatment and/or other chemical or physical treatment was applied. The plants were grown for 7-36 days in a greenhouse with an approximate 14 hour photoperiod which was maintained at about 18° C. during the day and 17° C. during the night. Nutrients and water were added on a regular basis and supplemental lighting was provided with overhead metal halide 1000-Watt lamps as necessary. The plants were employed for testing when they reached the second or third true leaf stage. […] The concentrated stock solutions obtained were diluted with 16 mL of an aqueous mixture containing acetone, water, isopropyl alcohol, DMSO, Agri-dex crop oil concentrate, and Triton® X-77 surfactant in a 64.7:26.0:6.7:2.0:0.7:0.01 v/v ratio to obtain spray solutions containing the highest application rates. […] Compound requirements are based upon a 12 mL application volume at a rate of 187 L/ha. Formulated compounds were applied to the plant material with an overhead Mandel track sprayer equipped with a […] nozzles calibrated to deliver 187 L/ha over an application area of 0.503 square meters at a spray height of 18 inches (43 cm) above average plant canopy height. Control plants were sprayed in the same manner with the blank. The treated plants and control plants were placed in a greenhouse as described above and watered by sub-irrigation to prevent wash-off of the test compounds.

[10] = tested on: Lamium purpureum; assay: Postemergence herbicidal activity in cereal crops; type: in vivo; details: post-emergent, 17.5 g ai/ha, after 20-22 days; for pest or weed control at 17.5 g/ha: Lamium purpureum, post-emergence, 480 h, read-out: % Control LAMPU
Experimental: as §3

[11] = tested on: Papaver rhoeas; assay: Postemergence herbicidal activity in cereal crops; type: in vivo; details: post-emergent, 17.5 g ai/ha, after 20-22 days; for pest or weed control at 17.5 g/ha: Papaver rhoeas, post-emergence, 480 h, read-out: % Control PAPRH
Experimental: as §3

[12] = tested on: Veronica persica; assay: Postemergence herbicidal activity in cereal crops; type: in vivo; details: post-emergent, 17.5 g ai/ha, after 20-22 days; for pest or weed control at 17.5 g/ha: Veronica persica, post-emergence, 480 h, read-out: % Control VERPE
Experimental: as §3

[13] = tested on: barley (Hordeum vulare); assay: Postemergence herbicidal activity in cereal crops; type: in vivo; details: crop, post-emergent, 17.5 g ai/ha, after 20-22 days; for pest or weed control at 17.5 g/ha: Hordeum, post-emergence, 480 h, read-out: % Control HORVS
Experimental: as §3

[14] = tested on: wheat (Triticum aestivum); assay: Postemergence herbicidal activity in cereal crops; type: in vivo; details: crop, post-emergent, 17.5 g ai/ha, after 20-22 days; for plant injury at 17.5 g/ha: Triticum aestivum, post-emergence, 480 h, read-out: % Control TRZAS
Experimental: as §3

[15] = Cyperus difformis, 504 h, read-out: % Control CYPDI
[16] = Echinochloa crus-galli, 504 h, read-out: % Control ECHCG
[17] = Pontederia vaginalis, 504 h, read-out: % Control MOOVA
[18] = Schoenoplectiella juncoides, 504 h, read-out: % Control SCPJU

melting point [°C] | Structure (SMILES) | pest or weed control at 140 g/ha [1] [%] | pest or weed control at 140 g/ha [2] [%] | pest or weed control at 140 g/ha [3] [%] | pest or weed control at 35 g/ha [4, 15] [%] | pest or weed control at 35 g/ha [5, 16] [%] | pest or weed control at 35 g/ha [6, 17] [%] | pest or weed control at 35 g/ha [7, 18] [%] | pest or weed control at 35 g/ha ([8]; Oryza sativa, 504 h) [%] | pest or weed control at 17.5 g/ha [9] [%] | pest or weed control at 17.5 g/ha [10] [%] | pest or weed control at 17.5 g/ha [11] [%] | pest or weed control at 17.5 g/ha [12] [%] | pest or weed control at 17.5 g/ha [13] [%] | plant injury at 17.5 g/ha [14] [%] | also measured
120 to 121 | CCN(CC)c1c(Cl)ccc(-c2cc(N)c(Cl)c(C(=O)OC)n2)c1F [Compound 17, 4-Amino-3-chloro-6-[4-chloro-3-(diethylamino)-2-fluorophenyl]pyridine-2-carboxylic acid, methyl ester] | 100 | 100 | 100 | 100 | 70 | 100 | 90 | 0 | 80 | 100 | 100 | 99 | 0 | 0 | –
148 to 149 | CNc1c(Cl)ccc(-c2cc(N)c(Cl)c(C(=O)OC)n2)c1F [Compound 38, 4-Amino-3-chloro-6-[4-chloro-2-fluoro-3-(methylamino)phenyl]pyridine-2-carboxylic acid, methyl ester] | 100 | 100 | 100 | – | – | – | – | – | 85 | 95 | 100 | 99 | 0 | 5 | pest or weed control at 70 g/ha ([4]; Cyperus difformis, 504 h, 70 g ai/ha, read-out: % Control CYPDI): 100%; pest or weed control at 70 g/ha ([5]; Echinochloa crus-galli, 504 h, 70 g ai/ha, read-out: % Control ECHCG): 50%; pest or weed control at 70 g/ha ([6]; Pontederia vaginalis, 504 h, 70 g ai/ha, read-out: % Control MOOVA): 100%; pest or weed control at 70 g/ha ([7]; Schoenoplectiella juncoides, 504 h, 70 g ai/ha, read-out: % Control SCPJU): 95%; pest or weed control at 70 g/ha ([8]; Oryza sativa, 504 h, 70 g ai/ha): 0%
– | COC(=O)c1nc(-c2ccc(Cl)c(C(C)F)c2F)cc(N)c1Cl (centres unmarked) [Compound 61, 4-Amino-3-chloro-6-[4-chloro-2-fluoro-3-(1-fluoroethyl)phenyl]pyridine-2-carboxylic acid, methyl ester] | 100 | 100 | 100 | 100 | 80 | 100 | 100 | 0 | 85 | 99 | 90 | 75 | 0 | 10 | –
– | CCCCOC(=O)c1nc(-c2ccc(Br)c(OC)c2F)cc(N)c1Cl [Compound 90, 4-Amino-3-chloro-6-(4-bromo-2-fluoro-3-methoxyphenyl)pyridine-2-carboxylic acid, butyl ester] | 100 | 85 | 100 | – | – | – | – | – | 99 | 100 | 95 | 25 | 10 | 0 | pest or weed control at 17.5 g/ha ([4]; Cyperus difformis, 504 h, 17.5 g ai/ha, read-out: % Control CYPDI): 100%; pest or weed control at 17.5 g/ha ([5]; Echinochloa crus-galli, 504 h, 17.5 g ai/ha, read-out: % Control ECHCG): 30%; pest or weed control at 17.5 g/ha ([6]; Pontederia vaginalis, 504 h, 17.5 g ai/ha, read-out: % Control MOOVA): 100%; pest or weed control at 17.5 g/ha ([7]; Schoenoplectiella juncoides, 504 h, 17.5 g ai/ha, read-out: % Control SCPJU): 90%; pest or weed control at 17.5 g/ha ([8]; Oryza sativa, 504 h, 17.5 g ai/ha): 0%
– | CCCCOC(=O)c1nc(-c2ccc(Cl)c(C(C)F)c2F)cc(N)c1Cl (centres unmarked) [Compound 91, 4-Amino-3-chloro-6-[4-chloro-2-fluoro-3-(1-fluoroethyl)phenyl)pyridine-2-carboxylic acid, butyl ester] | 100 | 100 | 95 | 100 | 99 | 100 | 99 | 0 | 90 | 100 | 60 | 45 | 10 | 20 | –
– | CCN(CC)CC.COc1c(Cl)ccc(-c2cc(N)c(Cl)c(C(=O)O)n2)c1F [Compound 135, 4-amino-3-chloro-6-(4-chloro-2-fluoro-3-methoxyphenyl)-pyridine-2-carboxylic acid, triethyl amine salt] | – | – | – | – | – | – | – | – | – | – | – | – | – | – | % Control CYPDI ([4]; 17.5 g ai/ha): 100%; % Control ECHCG ([5]; 17.5 g ai/ha): 30%; % Control MOOVA ([6]; 17.5 g ai/ha): 100%; % Control SCPJU ([7]; 17.5 g ai/ha): 85%; % Control ORYSA ([8]; 17.5 g ai/ha): 10%; % Control GALAP [9]: 90%; % Control LAMPU [10]: 100%; % Control PAPRH [11]: 100%; % Control VERPE [12]: 60%; % Control HORVS [13]: 0%; % Control TRZAS [14]: 0%
